Measured values reported in ChEMBL document CHEMBL1201862, “PubChem BioAssay data set” (2004).
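A five-concentration, 48-hour dose response in 96-well plates underlies each endpoint, interpolated linearly between surrounding concentrations. GI50 marks 50% less growth.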 Active and inactive are the calls of the source. No stated cut-off is given here; in the data, active = GI50 up to about 1.1 µM and inactive = higher.

Columns and labels:
Assay in all cases: NCI anticancer screen, dose series, 48 h
SR = tested on: SR
NCI-H522 = tested on: NCI-H522
T47D = tested on: T47D
HCT-15 = tested on: HCT-15
CCRF-CEM = tested on: CCRF-CEM
Malme-3M = tested on: Malme-3M
DU-145 = tested on: DU-145
MDA-MB-231 = tested on: MDA-MB-231
SF-268 = tested on: SF-268
CAKI-1 = tested on: CAKI-1
HOP-62 = tested on: HOP-62
K562 = tested on: K562
SK-MEL-5 = tested on: SK-MEL-5
MDA-MB-435 = tested on: MDA-MB-435
786-0 = tested on: 786-0
OVCAR-3 = tested on: OVCAR-3
SN12C = tested on: SN12C
UACC-62 = tested on: UACC-62
OVCAR-4 = tested on: OVCAR-4
EKVX = tested on: EKVX
HCC 2998 = tested on: HCC 2998
MDA-N = tested on: MDA-N
SNB-19 = tested on: SNB-19
UACC-257 = tested on: UACC-257
SF-295 = tested on: SF-295
TK-10 = tested on: TK-10
ACHN = tested on: ACHN
M14 = tested on: M14
KM12 = tested on: KM12
HL-60 = tested on: HL-60
NCI-H226 = tested on: NCI-H226
NCI/ADR-RES = tested on: NCI/ADR-RES
HT-29 = tested on: HT-29
A549 = tested on: A549
SK-MEL-2 = tested on: SK-MEL-2
OVCAR-8 = tested on: OVCAR-8
SK-OV-3 = tested on: SK-OV-3
SW-620 = tested on: SW-620
COLO 205 = tested on: COLO 205
SK-MEL-28 = tested on: SK-MEL-28
Hs-578T = tested on: Hs-578T
NCI-H23 = tested on: NCI-H23
PC-3 = tested on: PC-3
MCF7 = tested on: MCF7
HCT-116 = tested on: HCT-116
RPMI-8226 = tested on: RPMI-8226
U-251 = tested on: U-251
LOX IMVI = tested on: LOX IMVI
A498 = tested on: A498
NCI-H460 = tested on: NCI-H460
RXF 393 = tested on: RXF 393
SF-539 = tested on: SF-539
SNB-75 = tested on: SNB-75
OVCAR-5 = tested on: OVCAR-5
IGROV-1 = tested on: IGROV-1
HOP-92 = tested on: HOP-92
MOLT-4 = tested on: MOLT-4
UO-31 = tested on: UO-31
BT-549 = tested on: BT-549

CC1(C)N=c2[nH]cnc2=C(C(N)=O)N1
GI50 (SR): > 100 µM (inactive) | GI50 (NCI-H522): > 100 µM (inactive) | GI50 (T47D): > 100 µM (inactive) | GI50 (HCT-15): > 100 µM | GI50 (CCRF-CEM): > 100 µM (inactive) | GI50 (Malme-3M): > 100 µM (inactive) | GI50 (DU-145): > 100 µM (inactive) | GI50 (MDA-MB-231): > 100 µM (inactive) | GI50 (SF-268): > 100 µM (inactive) | GI50 (CAKI-1): > 100 µM (inactive) | GI50 (HOP-62): > 100 µM (inactive) | GI50 (K562): > 100 µM (inactive) | GI50 (SK-MEL-5): > 100 µM (inactive) | GI50 (MDA-MB-435): > 100 µM (inactive) | GI50 (786-0): > 100 µM (inactive) | GI50 (OVCAR-3): > 100 µM (inactive) | GI50 (SN12C): > 100 µM (inactive) | GI50 (UACC-62): > 100 µM (inactive) | GI50 (OVCAR-4): > 100 µM (inactive) | GI50 (EKVX): > 100 µM (inactive) | GI50 (HCC 2998): > 100 µM (inactive) | GI50 (MDA-N): > 100 µM (inactive) | GI50 (SNB-19): > 100 µM (inactive) | GI50 (UACC-257): > 100 µM (inactive) | GI50 (SF-295): > 100 µM (inactive) | GI50 (TK-10): > 100 µM (inactive) | GI50 (ACHN): > 100 µM (inactive) | GI50 (M14): > 100 µM (inactive) | GI50 (KM12): > 100 µM (inactive) | GI50 (HL-60): > 100 µM (inactive) | GI50 (NCI-H226): > 100 µM (inactive) | GI50 (NCI/ADR-RES): > 100 µM (inactive) | GI50 (HT-29): > 100 µM (inactive) | GI50 (A549): > 100 µM (inactive) | GI50 (SK-MEL-2): > 100 µM (inactive) | GI50 (OVCAR-8): > 100 µM (inactive) | GI50 (SK-OV-3): > 100 µM (inactive) | GI50 (SW-620): > 100 µM (inactive) | GI50 (COLO 205): > 100 µM (inactive) | GI50 (SK-MEL-28): > 100 µM (inactive) | GI50 (Hs-578T): > 100 µM (inactive) | GI50 (NCI-H23): > 100 µM (inactive) | GI50 (PC-3): > 100 µM (inactive) | GI50 (MCF7): > 100 µM (inactive) | GI50 (HCT-116): > 100 µM (inactive) | GI50 (RPMI-8226): > 100 µM (inactive) | GI50 (U-251): > 100 µM (inactive) | GI50 (LOX IMVI): > 100 µM (inactive) | GI50 (A498): > 100 µM (inactive) | GI50 (NCI-H460): > 100 µM (inactive) | GI50 (RXF 393): > 100 µM (inactive) | GI50 (SF-539): > 100 µM (inactive) | GI50 (SNB-75): > 100 µM (inactive) | GI50 (OVCAR-5): > 100 µM (inactive) | GI50 (IGROV-1): > 100 µM (inactive) | GI50 (HOP-92): > 100 µM (inactive)

CC(=O)Oc1cc2c(n(C)c1=O)CCC2
GI50 (NCI-H522): > 10 µM (inactive) | GI50 (HCT-15): 33.6 µM | GI50 (CCRF-CEM): > 100 µM (inactive) | GI50 (Malme-3M): > 100 µM (inactive) | GI50 (DU-145): > 100 µM (inactive) | GI50 (MDA-MB-231): > 100 µM (inactive) | GI50 (SF-268): > 100 µM (inactive) | GI50 (CAKI-1): > 100 µM (inactive) | GI50 (HOP-62): > 100 µM (inactive) | GI50 (K562): > 100 µM (inactive) | GI50 (SK-MEL-5): > 100 µM (inactive) | GI50 (MDA-MB-435): > 100 µM (inactive) | GI50 (786-0): > 100 µM (inactive) | GI50 (SN12C): > 100 µM (inactive) | GI50 (OVCAR-4): > 100 µM (inactive) | GI50 (EKVX): > 100 µM (inactive) | GI50 (HCC 2998): 81.7 µM (inactive) | GI50 (SNB-19): > 100 µM (inactive) | GI50 (UACC-257): > 100 µM (inactive) | GI50 (SF-295): > 100 µM (inactive) | GI50 (TK-10): > 100 µM (inactive) | GI50 (ACHN): > 100 µM (inactive) | GI50 (MOLT-4): > 100 µM (inactive) | GI50 (M14): > 100 µM (inactive) | GI50 (KM12): > 100 µM (inactive) | GI50 (HL-60): 81.5 µM (inactive) | GI50 (NCI-H226): > 100 µM (inactive) | GI50 (NCI/ADR-RES): 35.5 µM (inactive) | GI50 (HT-29): > 100 µM (inactive) | GI50 (A549): > 100 µM (inactive) | GI50 (SK-MEL-2): > 100 µM (inactive) | GI50 (OVCAR-8): 94.4 µM (inactive) | GI50 (SK-OV-3): > 100 µM (inactive) | GI50 (UO-31): 99.5 µM (inactive) | GI50 (SW-620): > 100 µM (inactive) | GI50 (COLO 205): > 100 µM (inactive) | GI50 (SK-MEL-28): > 100 µM (inactive) | GI50 (NCI-H23): > 100 µM (inactive) | GI50 (PC-3): > 100 µM (inactive) | GI50 (MCF7): > 100 µM (inactive) | GI50 (HCT-116): > 100 µM (inactive) | GI50 (U-251): > 100 µM (inactive) | GI50 (LOX IMVI): 96.4 µM (inactive) | GI50 (A498): > 100 µM (inactive) | GI50 (NCI-H460): > 100 µM (inactive) | GI50 (SF-539): > 100 µM (inactive) | GI50 (SNB-75): > 100 µM (inactive) | GI50 (OVCAR-5): > 100 µM (inactive) | GI50 (BT-549): > 100 µM (inactive) | GI50 (IGROV-1): > 100 µM (inactive) | GI50 (HOP-92): > 100 µM (inactive)
